According to ChEMBL document CHEMBL5550155, “Discovery of meisoindigo derivatives as noncovalent and orally available Mpro inhibitors: their therapeutic implications in the treatment of COVID-19” (Eur J Med Chem, 2024):
Activity calls are given as the source filed them. The calls are words filed in the database; no cut-off is given here.

What was measured:
[1] = target: Replicase polyprotein 1ab (Severe acute respiratory syndrome coronavirus 2) (UniProt P0DTD1); assay: Inhibition of recombinant SARS-CoV-2 main protease expressed in Escherichia coli BL21 DE3 expression cells using MCA-AVLQSGFR-Lys(Dnp)-Lys-NH2 as substrate at 10 uM incubated for 10 to 15 mins followed by substrate addition by FRET assay relative to control; conditions: time 10-15 min
[2] = target: T1, Replicase polyprotein 1ab (Severe acute respiratory syndrome coronavirus 2, UniProt P0DTD1); assay: Binding affinity to recombinant SARS-CoV-2 main protease expressed in Escherichia coli BL21 DE3 expression cells assessed as dissociation constant measured for 60 secs by SPR analysis
[3] = test system: SARS-CoV-2; assay: Antiviral activity against SARS-CoV-2 infected in African green monkey Vero E6 cells assessed as reduction in viral plaque number pre-infected with virus followed by cell addition for 1 hr and measured after 24 hrs by plaque assay; format: functional, organism-based; conditions: Severe acute respiratory syndrome coronavirus 2
[4] = n-Octanol/water partition coefficient, logP of the compound incubated for 12 hrs by HPLC analysis; format: physicochemical
[5] = Stability of compound in stimulated intestinal fluid assessed as parent compound remaining measured upto 24 hrs by HPLC analysis; format: ADME; conditions: simulated intestinal fluid, read-out: Stability
[6] = test system: SARS-CoV-2; assay: Antiviral activity against SARS-CoV-2 infected in African green monkey Vero E6 cells assessed as reduction in viral plaque size pre-infected with virus followed by cell addition for 1 hr and measured after 24 hrs by plaque assay; format: functional, organism-based; conditions: Severe acute respiratory syndrome coronavirus 2
[7] = target: T1, Replicase polyprotein 1ab; assay: Non-covalent inhibition of SARS-CoV-2 main protease incubated for 50 mins followed by substrate addition by FRET assay
[8] = Metabolic stability in mouse liver microsomes assessed as half life at 10 mg/ml preincubated for 5 mins followed by NADPH addition and measured upto 120 mins by HPLC analysis; format: ADME, Microsome; conditions: time < 125 min
[9] = target: T1, Replicase polyprotein 1ab; assay: Non-covalent inhibition of SARS-CoV-2 main protease incubated for 30 mins followed by substrate addition by FRET assay
[10] = target: T1, Replicase polyprotein 1ab; assay: Non-covalent inhibition of SARS-CoV-2 main protease incubated for 10 mins followed by substrate addition by FRET assay
[11] = test system: SARS-CoV-2; assay: Antiviral activity against wild type SARS-CoV-2 infected in human HeLa cells expressing ACE2 assessed as reduction in viral spike protein level preincubated with cells for 2 hrs followed by viral infection for 1 hr and measured after 24 hrs by RT-qPCR analysis; format: functional, organism-based; conditions: Severe acute respiratory syndrome coronavirus 2, HeLa
[12] = target: T1, Replicase polyprotein 1ab; assay: Inhibition of recombinant SARS-CoV-2 main protease expressed in Escherichia coli BL21 DE3 expression cells using MCA-AVLQSGFR-Lys(Dnp)-Lys-NH2 as substrate incubated for 10 to 15 mins followed by substrate addition by FRET assay
[13] = Metabolic stability in mouse liver microsomes assessed as intrinsic clearance at 10 mg/ml preincubated for 5 mins followed by NADPH addition and measured upto 120 mins by HPLC analysis; format: ADME, Microsome; conditions: time < 125 min, read-out: CLH
[14] = Metabolic stability in mouse liver microsomes assessed as parent compound remaining at 10 mg/ml measured after 120 mins by HPLC analysis; format: ADME, Microsome; conditions: read-out: Stability
[15] = test system: SARS-CoV-2; assay: Antiviral activity against wild type SARS-CoV-2 infected in human HeLa cells expressing ACE2 assessed as reduction in nucleocapsid protein mRNA level preincubated with cells for 2 hrs followed by viral infection for 1 hr and measured after 24 hrs by RT-qPCR analysis; format: functional, organism-based; conditions: Severe acute respiratory syndrome coronavirus 2, HeLa
[16] = test system: SARS-CoV-2; assay: Antiviral activity against wild type SARS-CoV-2 infected in human HeLa cells expressing ACE2 assessed as reduction in viral spike protein level at 10 uM preincubated with cells for 2 hrs followed by viral infection for 1 hr and measured after 24 hrs by Western blot analysis; format: functional, organism-based; conditions: Severe acute respiratory syndrome coronavirus 2, time 27.0 hrs
[17] = test system: SARS-CoV-2; assay: Antiviral activity against wild type SARS-CoV-2 infected in human HeLa cells expressing ACE2 assessed as reduction in nucleocapsid protein level at 10 uM preincubated with cells for 2 hrs followed by viral infection for 1 hr and measured after 24 hrs by Western blot analysis; format: functional, organism-based; conditions: Severe acute respiratory syndrome coronavirus 2, time 27.0 hrs
[18] = Solubility of the compound in water incubated for 24 hrs by HPLC analysis; format: physicochemical
[19] = Stability of compound in stimulated gastric fluid assessed as parent compound remaining measured upto 24 hrs by HPLC analysis; format: ADME; conditions: simulated gastric fluid, read-out: Stability
[20] = test system: SARS-CoV-2; assay: Antiviral activity against wild type SARS-CoV-2 infected in human Calu-3 assessed as reduction in nucleocapsid protein level at 10 uM preincubated with cells for 2 hrs followed by viral infection for 1 hr and measured after 24 hrs by Western blot analysis; format: functional, organism-based; conditions: Severe acute respiratory syndrome coronavirus 2, time 27.0 hrs
[21] = test system: SARS-CoV-2; assay: Antiviral activity against wild type SARS-CoV-2 infected in human Calu-3 cells assessed as reduction in viral spike protein level at 10 uM preincubated with cells for 2 hrs followed by viral infection for 1 hr and measured after 24 hrs by Western blot analysis; format: functional, organism-based; conditions: Severe acute respiratory syndrome coronavirus 2, time 27.0 hrs
[22] = test system: SARS-CoV-2; assay: Antiviral activity against wild type SARS-CoV-2 infected in human Calu-3 cells assessed as reduction in nucleocapsid protein mRNA level at 10 uM preincubated with cells for 2 hrs followed by viral infection for 1 hr and measured after 24 hrs by RT-qPCR analysis; format: functional, organism-based; conditions: Severe acute respiratory syndrome coronavirus 2, time 27.0 hrs
[23] = test system: SARS-CoV-2; assay: Antiviral activity against wild type SARS-CoV-2 infected in human Calu-3 assessed as reduction in viral spike protein level at 10 uM preincubated with cells for 2 hrs followed by viral infection for 1 hr and measured after 24 hrs by RT-qPCR analysis; format: functional, organism-based; conditions: Severe acute respiratory syndrome coronavirus 2, time 27.0 hrs

## O=C(O)CCCCCCCN1C(=O)/C(=C2/C(=O)Nc3ccccc32)c2cc(O)ccc21
[1]
  inhibition: 63.7%

## CN1C(=O)C2(CC=CCC23C(=O)Nc2ccccc23)c2ccccc21 (stereo not given)
[1]
  inhibition: 11.9%

## CN1C(=O)/C(=C2/C(=O)N(CCCN)c3ccc(Br)cc32)c2ccccc21.Cl
[2]
  Kd: 16800 nM
[3]
  Activity: Active
[4]
  logP at 12 h: 0.29
[5]
  remaining at 24 h: 73.6%
[6]
  Activity: Active
[7]
  IC50: 1340 nM
[8]
  half-life: 8.25 h
[1]
  inhibition: 90.5%
[9]
  IC50: 1150 nM
[10]
  IC50: 1300 nM
[11]
  EC50: 2740 nM
[12]
  IC50: 1350 nM
[13]
  microsomal CLint: 1.4 µL/min/mg
[14]
  remaining at 2 h: 84%
[15]
  EC50: 2660 nM
[16]
  Activity: Active
[17]
  Activity: Active
[18]
  solubility at 24 h: 2490 µg/mL
[19]
  remaining at 24 h: 95.3%

## CN1C(=O)/C(=C2/C(=O)N(CCN3CCCC3)c3ccccc32)c2ccccc21.Cl
[2]
  Kd: 700 nM
[4]
  logP at 12 h: 0.7
[5]
  remaining at 24 h: 85.3%
[1]
  inhibition: 86.5%
[12]
  IC50: 1150 nM
[16]
  Activity: inactive
[17]
  Activity: inactive
[18]
  solubility at 24 h: 17300 µg/mL
[19]
  remaining at 24 h: 95.2%

## CN1C(=O)/C(=C2/C(=O)Nc3ccc(Br)cc32)c2ccccc21
[1]
  inhibition: 94.5%

## CN1C(=O)/C(=C2/C(=O)N(C)c3ccccc32)c2ccccc21
[1]
  inhibition: 25.7%

## O=C1Nc2ccccc2/C1=C1\C(=O)N(CCN2CCOCC2)c2ccccc21
[1]
  inhibition: 83.9%

## CCOC(=O)CCCCCCCN1C(=O)/C(=C2/C(=O)Nc3ccccc32)c2cc(Br)ccc21
[1]
  inhibition: 25.2%

## O=C(O)CCCCCCCCCN1C(=O)/C(=C2/C(=O)Nc3ccccc32)c2ccccc21
[1]
  inhibition: 71.2%

## CN1C(=O)/C(=C2/C(=O)Nc3ccccc32)c2cc([N+](=O)[O-])ccc21
[1]
  inhibition: 32.8%
[20]
  Activity: Active

## COc1ccc2c(c1)C1(CC=CCC13C(=O)Nc1ccccc13)C(=O)N2C (stereo not given)
[1]
  inhibition: 4.1%

## O=C(O)CCCCCCCCCCCN1C(=O)/C(=C2/C(=O)Nc3ccccc32)c2ccccc21
[1]
  inhibition: 72.9%

## CN1C(=O)/C(=C2/C(=O)Nc3ccccc32)c2cc(Cl)ccc21
[1]
  inhibition: 40.8%

## O=C(O)CCCCCCCCCN1C(=O)/C(=C2/C(=O)Nc3ccccc32)c2cc(Br)ccc21
[1]
  inhibition: 76.8%

## O=C1Nc2ccccc2/C1=C1\C(=O)N(CCBr)c2ccccc21
[1]
  inhibition: 97.4%

## COc1ccc2c(c1)/C(=C1\C(=O)Nc3ccccc31)C(=O)N2C
[1]
  inhibition: 91.4%

## O=C(O)CCCCCCCN1C(=O)/C(=C2/C(=O)Nc3ccccc32)c2cc(Br)ccc21
[21]
  Activity: Active
[1]
  inhibition: 97.8%
[22]
  Activity: Active
[20]
  Activity: Active
[12]
  IC50: 1210 nM
[23]
  Activity: Active

## COc1ccc2c(c1)/C(=C1\C(=O)N(C)c3ccccc31)C(=O)N2
[1]
  inhibition: 70.7%

## CN1C(=O)/C(=C2/C(=O)Nc3ccccc32)c2ccccc21 [MEISOINDIGO]
[1]
  inhibition: 50.6%
[12]
  IC50: 15600 nM

## CN1C(=O)/C(=C2/C(=O)Nc3ccccc32)c2cc(O)ccc21
[21]
  Activity: Active
[1]
  inhibition: 84.2%
[22]
  Activity: Active
[23]
  Activity: Active

## O=C1Nc2ccccc2/C1=C1\C(=O)Nc2ccccc21 [ISOINDIGO]
[1]
  inhibition: 85.3%
[12]
  IC50: 1200 nM

## CN1C(=O)/C(=C2/C(=O)N(CCNC(=O)OC(C)(C)C)c3ccccc32)c2ccccc21
[1]
  inhibition: 52.6%

## CN1CCN(CCN2C(=O)/C(=C3/C(=O)Nc4ccccc43)c3ccccc32)CC1
[1]
  inhibition: 91.3%

## O=C(O)CCCCCN1C(=O)/C(=C2/C(=O)Nc3ccccc32)c2ccccc21
[1]
  inhibition: 59.8%

## COc1ccc2c(c1)/C(=C1\C(=O)Nc3ccccc31)C(=O)N2CCCCCCCC(=O)O
[1]
  inhibition: 89.1%
[12]
  IC50: 1610 nM

## CC(C)(C)[C@H](NC(=O)C(F)(F)F)C(=O)N1C[C@H]2[C@@H]([C@H]1C(=O)N[C@H](C#N)C[C@@H]1CCNC1=O)C2(C)C
[11]
  EC50: 16900 nM

## O=C(O)CCCCCCCN1C(=O)/C(=C2/C(=O)Nc3ccccc32)c2ccccc21
[1]
  inhibition: 73.8%

## CN1C(=O)C2(CC=CCC23C(=O)Nc2ccc(Br)cc23)c2ccccc21 (stereo not given)
[1]
  inhibition: 6%

## CCOC(=O)CCCCCCCCCN1C(=O)/C(=C2/C(=O)Nc3ccccc32)c2cc(Br)ccc21
[1]
  inhibition: 21.2%

## CN1C(=O)/C(=C2/C(=O)N(CCN)c3ccccc32)c2cc(Br)ccc21.Cl
[2]
  Kd: 1270 nM
[3]
  Activity: Active
[4]
  logP at 12 h: 0.59
[5]
  remaining at 24 h: 78%
[6]
  Activity: Active
[7]
  IC50: 1490 nM
[1]
  inhibition: 85.8%
[9]
  IC50: 1520 nM
[10]
  IC50: 1960 nM
[11]
  EC50: 1760 nM
[12]
  IC50: 1090 nM
[15]
  EC50: 2030 nM
[16]
  Activity: Active
[17]
  Activity: Active
[18]
  solubility at 24 h: 3810 µg/mL
[19]
  remaining at 24 h: 95%

## CN1C(=O)/C(=C2/C(=O)Nc3ccccc32)c2cc(F)ccc21
[1]
  inhibition: 82.5%

## CN1C(=O)/C(=C2/C(=O)Nc3ccccc32)c2cc(Br)ccc21
[1]
  inhibition: 32.4%
